Measurements from patent US20240366589A1, “NHE3-BINDING COMPOUNDS AND METHODS FOR INHIBITING PHOSPHATE TRANSPORT” (Ardelyx, Inc., priority 2013, published 2024).
Where “and” joins values, the source holds several entries; their conditions need not be identical. Equal values may be shown once.

Tests used:
Rat NHE3 = target: T1, Rat NHE3 (Rattus norvegicus, UniProt P26433); assay: Cell-based NHE3 activity under prompt conditions (OK cells, BCECF pH recovery), rat NHE3; details: prompt conditions
T1 construct: expressed in transfected cells; host or cells: Opossum kidney (OK) cells (ATCC), electroporation
T1 sequence (P26433 29-831): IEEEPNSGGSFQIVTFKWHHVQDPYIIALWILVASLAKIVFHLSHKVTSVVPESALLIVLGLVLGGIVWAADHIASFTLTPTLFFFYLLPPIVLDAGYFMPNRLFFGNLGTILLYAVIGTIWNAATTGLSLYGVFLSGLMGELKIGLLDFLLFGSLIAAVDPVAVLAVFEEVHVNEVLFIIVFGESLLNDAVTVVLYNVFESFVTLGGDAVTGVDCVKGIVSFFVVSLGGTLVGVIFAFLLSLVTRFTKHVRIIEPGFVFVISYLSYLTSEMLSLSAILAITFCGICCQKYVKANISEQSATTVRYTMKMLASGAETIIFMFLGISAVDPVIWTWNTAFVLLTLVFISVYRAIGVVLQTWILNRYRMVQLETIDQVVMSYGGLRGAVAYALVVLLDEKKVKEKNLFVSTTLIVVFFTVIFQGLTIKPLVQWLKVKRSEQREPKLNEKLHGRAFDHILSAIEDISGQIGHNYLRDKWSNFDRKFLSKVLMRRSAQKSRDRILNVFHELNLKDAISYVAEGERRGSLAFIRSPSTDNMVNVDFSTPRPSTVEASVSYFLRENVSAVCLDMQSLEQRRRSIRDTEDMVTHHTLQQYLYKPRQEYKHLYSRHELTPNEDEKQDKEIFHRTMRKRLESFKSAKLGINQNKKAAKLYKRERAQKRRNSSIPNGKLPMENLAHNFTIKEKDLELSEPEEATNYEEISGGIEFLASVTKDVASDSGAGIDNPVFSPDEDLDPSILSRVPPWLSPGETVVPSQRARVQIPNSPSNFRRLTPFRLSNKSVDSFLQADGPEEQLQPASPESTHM
In short: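 Read-out: initial rate of BCECF-reported intracellular pH recovery via Na+/H+ antiport, fitted to pIC50. Opossum kidney cells transfected with rat or human NHE3; NH4Cl prepulse with 5 μM BCECF-AM, 30 min RT; Na+-free choline buffer 10 min.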

Human NHE3 = target: T2, Human NHE3 (Homo sapiens, UniProt P48764); assay: Cell-based NHE3 activity under prompt conditions (OK cells, BCECF pH recovery), human NHE3; details: prompt conditions
T2 construct: expressed in transfected cells; host or cells: Opossum kidney (OK) cells (ATCC), electroporation
T2 sequence (P48764 26-834): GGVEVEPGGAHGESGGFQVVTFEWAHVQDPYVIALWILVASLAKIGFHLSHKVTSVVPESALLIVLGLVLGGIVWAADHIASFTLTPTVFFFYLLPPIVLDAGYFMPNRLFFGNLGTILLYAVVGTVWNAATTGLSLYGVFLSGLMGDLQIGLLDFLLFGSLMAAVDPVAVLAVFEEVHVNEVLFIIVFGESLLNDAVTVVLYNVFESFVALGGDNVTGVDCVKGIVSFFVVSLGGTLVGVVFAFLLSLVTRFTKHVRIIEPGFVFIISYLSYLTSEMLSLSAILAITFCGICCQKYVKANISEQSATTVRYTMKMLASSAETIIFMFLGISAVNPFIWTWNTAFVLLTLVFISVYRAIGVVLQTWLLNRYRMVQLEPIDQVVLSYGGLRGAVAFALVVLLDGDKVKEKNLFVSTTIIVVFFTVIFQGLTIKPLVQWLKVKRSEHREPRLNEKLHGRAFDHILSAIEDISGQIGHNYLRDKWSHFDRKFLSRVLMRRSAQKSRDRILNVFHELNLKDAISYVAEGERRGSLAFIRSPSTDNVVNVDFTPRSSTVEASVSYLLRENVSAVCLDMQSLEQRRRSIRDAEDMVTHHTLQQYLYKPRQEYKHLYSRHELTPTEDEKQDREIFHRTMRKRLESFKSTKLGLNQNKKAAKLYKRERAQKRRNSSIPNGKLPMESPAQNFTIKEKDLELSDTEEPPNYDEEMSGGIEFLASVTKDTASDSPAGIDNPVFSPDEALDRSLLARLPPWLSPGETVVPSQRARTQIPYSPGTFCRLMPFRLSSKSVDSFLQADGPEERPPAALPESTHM
Method: Cell-based activity under Prompt Conditions. Rat or human NHE3-mediated Na^+-dependent H antiport was measured using a modification of the pH sensitive dye method originally reported by Paradiso (PNAS USA. 81:7436-7440, 1984). Opossum kidney (OK) cells were obtained from the ATCC and propagated per their instructions. The rat NHE3 gene (GenBank M85300) or the human NHE3 gene (GenBank NM_004174.1) was introduced into OK cells via electroporation, and cells were seeded into 96 well plates and grown overnight. Medium was aspirated from the wells, cells were washed twice with NaCl-HEPES buffer (100 mM NaCl, 50 mM HEPES, 10 mM glucose, 5 mM KCl, 2 mM CaCl2, 1 mM MgCl2, pH 7.4), then incubated for 30 min at room temperature with NH4Cl-HEPES buffer (20 mM NH4Cl, 80 mM NaCl, 50 mM HEPES, 5 mM KCl, 2 mM CaCl2, 1 mM MgCl2, pH 7.4) containing 5 μM bis(acetoxymethyl) 3,3′-(3′,6′-bis(acetoxymethoxy)-5-((acetoxymethoxy)carbonyl)-3-oxo-3H-spiro[isobenzofuran-1,9′-xanthene]-2′,7′-diyl)dipropanoate (BCECF-AM).
Cells were washed twice with Ammonium free, Na^+-free HEPES (100 mM choline, 50 mM HEPES, 10 mM glucose, 5 mM KCl, 2 mM CaCl2, 1 mM MgCl2, pH 7.4) and incubated in the same buffer for 10 minutes at room temperature to lower intracellular pH. […] Initial rates were plotted as the average 2 or more replicates, and pIC50 values were estimated using GraphPad Prism.
Cell-based activity of NHE3 Activity under ‘Prompt’ Conditions. This assay was performed as described in Example 1 (supra).

[1] = tested on: absorption of sodium from the intestinal lumen; assay: Inhibition of intestinal sodium absorption: urinary sodium (uNa) 16 h after single oral dose in rats; format: in vivo, rat; details: oral gavage, 16 h post-dose
In short: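 Urinary sodium mass over the 16 h after one oral gavage dose, measured by cation-exchange ion chromatography, reported as percent of water-vehicle group; ANOVA plus Dunnett's post hoc test. Groups of six 8-week-old Sprague-Dawley rats, housed individually in metabolic cages post-dose, fed and watered freely.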

[2] = tested on: absorption of sodium from the intestinal lumen; assay: Fecal form score (FFS) 16 h after oral dose in rats; format: in vivo, rat; details: oral gavage, 16 h post-dose, scale 1-5
In short: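 Fecal form was scored at 16 h post-dose on a 1–5 wetness scale (normal pellet to liquid stream), with two independent observations averaged across six rats per group. Animals were 8-week-old Sprague-Dawley rats given test compound or water orally in the late afternoon and kept in metabolic cages.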

[3] = tested on: phosphorus and calcium levels in the urine of rats; assay: Urinary excretion of phosphate and calcium in rats (16 h overnight urine); format: in vivo, rat; details: rats, oral gavage, 16 h post-dose

Compound | Prompt Rat NHE3 pIC50 (Rat NHE3) | Prompt Human NHE3 pIC50 (Human NHE3) | IC50 (Rat NHE3; read-out: Prompt Rat NHE3 pIC50 (converted)) | Urine Na % of control ([1]; dose 10 mg/kg) | Fecal Form Score average ([2]; dose 10 mg/kg) | Urine P % of control ([3]; dose 10 mg/kg) | Urine Na % of control ([1]; dose 30 mg/kg) | Fecal Form Score average ([2]; dose 30 mg/kg) | Urine P % of control ([3]; dose 30 mg/kg) | Urine Na % of control ([1]; dose 1 mg/kg) | Fecal Form Score average ([2]; dose 1 mg/kg) | Urine P % of control ([3]; dose 1 mg/kg)
NCCOCCOCCN1CCN(c2cccc(-c3nc(N=C(N)N)nc4ccc(Cl)cc34)c2)CC1 [compound 16] | 6.70 | 7.80 |  |  |  |  | 87% | 1 | 123% |  |  | 
NC(N)=Nc1nc(-c2ccc(N3CCN(CCOCCOCCNC(=O)[C@H](O)[C@@H](O)C(=O)NCCOCCOCCN4CCN(c5ccc(-c6nc(N=C(N)N)nc7ccc(Cl)cc67)cc5)CC4)CC3)cc2)c2cc(Cl)ccc2n1 [compound 17] | 7.10 | 6.60 |  |  |  |  | 86% | 1 | 120% |  |  | 
NCCOCCOCCOCCN1CCN(c2ccc(-c3nc(N=C(N)N)nc4ccc(Cl)cc34)cc2)CC1 [compound 18] | 7.25 and 6.90 | 7.35 and 6.90 |  | 74% | 1 | 142% | 41% | 1 | 109% |  |  | 
NCCOCCOCCN1CCN(c2ccc(-c3nc(N=C(N)N)nc4ccc(Cl)cc34)cc2)CC1 [compound 19] | 7.00 | 7.40 |  | 72% | 1 | 119% |  |  |  |  |  | 
N=C(N)Nc1nc(-c2ccc(N3CCN(CCOCCOCCOCCNC(=O)NCCOCCOCCNC(=O)NCCOCCOCCOCCN4CCN(c5ccc(-c6nc(NC(=N)N)nc7ccc(Cl)cc67)cc5)CC4)CC3)cc2)c2cc(Cl)ccc2n1 [compound 20] | 7.30 | 7.20 |  | 86% | 1 | 81% |  |  |  |  |  | 
CN(CC(=O)NCCOCCOCCOCCN1CCN(c2ccc(-c3nc(NC(=N)N)nc4ccc(Cl)cc34)cc2)CC1)CC(=O)NCCOCCOCCOCCN1CCN(c2ccc(-c3c(Cl)ccc4nc(NC(=N)N)ncc34)cc2)CC1 [compound 21] |  | 7.00 | 794 nM | 66% | 1 | 101% |  |  |  |  |  | 
CN1Cc2c(Cl)cc(Cl)cc2[C@H](c2cccc(S(=O)(=O)NCCOCCOCCOCCN)c2)C1 [compound 22] | 7.34 | 6.95 |  | 19% | 2 | 40% |  |  |  | 91% | 1 | 64%
N=C(N)Nc1nc(-c2cccc(N3CCN(CCOCCOCCOCCNC(=O)CCOCCOCCOCCOCCOCCC(=O)NCCOCCOCCOCCN4CCN(c5cccc(-c6nc(NC(=N)N)nc7ccc(Cl)cc67)c5)CC4)CC3)c2)c2cc(Cl)ccc2n1 [compound 23] | 6.87 | 8.55 |  | 73% | 1 | 95% |  |  |  |  |  | 
N=C(N)Nc1nc(-c2ccc(N3CCN(CCOCCOCCOCCNC(=O)CCOCCOCCOCCOCCOCCC(=O)NCCOCCOCCOCCN4CCN(c5ccc(-c6nc(NC(=N)N)nc7ccc(Cl)cc67)cc5)CC4)CC3)cc2)c2cc(Cl)ccc2n1 [compound 24] | 7.68 | 8.58 |  | 100% | 1 | 80% | 27% | 3 | 70% |  |  | 
CN1Cc2c(Cl)cc(Cl)cc2[C@H](c2cccc(S(=O)(=O)NCCOCCOCCOCCNC(=O)COCC(=O)NCCOCCOCCOc3cccc(-c4nc(NC(=N)N)nc5ccc(Cl)cc45)c3)c2)C1 [compound 25] | 6.85 | 6.60 |  | 87% | 1 | 150% |  |  |  |  |  | 
NC(N)=Nc1nc(-c2cccc(N3CCN(CCOCCOCCNC(=O)NCCOCCOCCNC(=O)NCCCCNC(=O)NCCOCCOCCNC(=O)NCCOCCOCCN4CCN(c5cccc(-c6nc(N=C(N)N)nc7ccc(Cl)cc67)c5)CC4)CC3)c2)c2cc(Cl)ccc2n1 [compound 28] | 7.60 | 8.10 |  | 83% | 1 | 129% |  |  |  |  |  | 

Continued, in another order:

Prompt Rat NHE3 pIC50 (Rat NHE3) | Prompt Human NHE3 pIC50 (Human NHE3) | IC50 (Rat NHE3; read-out: Prompt Rat NHE3 pIC50 (converted)) | Compound | Urine Na % of control ([1]; dose 10 mg/kg) | Fecal Form Score average ([2]; dose 10 mg/kg) | Urine P % of control ([3]; dose 10 mg/kg) | Urine Na % of control ([1]; dose 30 mg/kg) | Fecal Form Score average ([2]; dose 30 mg/kg) | Urine P % of control ([3]; dose 30 mg/kg) | Urine Na % of control ([1]; dose 1 mg/kg) | Fecal Form Score average ([2]; dose 1 mg/kg) | Urine P % of control ([3]; dose 1 mg/kg)
6.70 | 7.40 |  | C/C(=C\c1cc(F)c(Oc2ccc(S(=O)(=O)NCCOCCOCCOCCNCc3ccc(CNCCOCCOCCOCCNS(=O)(=O)c4ccc(Oc5c(F)cc(/C=C(\C)C(=O)N=C(N)N)cc5F)cc4)cc3)cc2)c(F)c1)C(=O)N=C(N)N [compound 13] | 74% | 1 | 56% |  |  |  |  |  | 
7.00 | 7.60 |  | C/C(=C\c1cc(F)c(Oc2ccc(S(=O)(=O)NCCOCCOCCOCCNC(=O)NCCOCCOCCNC(=O)NCCOCCOCCOCCNS(=O)(=O)c3ccc(Oc4c(F)cc(/C=C(\C)C(=O)N=C(N)N)cc4F)cc3)cc2)c(F)c1)C(=O)N=C(N)N [compound 14] | 51% | 1 | 59% |  |  |  |  |  | 
7.30 | 7.90 |  | C/C(=C\c1cc(F)c(Oc2ccc(S(=O)(=O)NCCOCCOCCOCCNC(=O)COCC(=O)NCCOCCOCCOCCNS(=O)(=O)c3ccc(Oc4c(F)cc(/C=C(\C)C(=O)N=C(N)N)cc4F)cc3)cc2)c(F)c1)C(=O)N=C(N)N [compound 15] | 77% | 1 | 65% |  |  |  |  |  | 
7.50 | 7.70 |  | C/C(=C\c1cc(F)c(Oc2ccc(S(=O)(=O)NCCOCCOCCOCCNC(=O)OCCOCCOCCOC(=O)NCCOCCOCCOCCNS(=O)(=O)c3ccc(Oc4c(F)cc(/C=C(\C)C(=O)N=C(N)N)cc4F)cc3)cc2)c(F)c1)C(=O)N=C(N)N [compound 26] | 78% | 1 | 77% |  |  |  |  |  | 
7.50 | 8.40 |  | C/C(=C\c1cc(F)c(Oc2ccc(S(=O)(=O)NCCOCCOCCOCCNC(=O)CN(CCN(CC(=O)O)CC(=O)NCCOCCOCCOCCNS(=O)(=O)c3ccc(Oc4c(F)cc(/C=C(\C)C(=O)N=C(N)N)cc4F)cc3)CC(=O)O)cc2)c(F)c1)C(=O)N=C(N)N [compound 27] | 51% | 1 | 91% |  |  |  |  |  | 
